“Also recorded” adds a separate entry of the source. Ends that are not written are not given here.
Assays:
[1] = system: G93A-SOD1 Tg mice; assay: In vivo effect on ALS mice: onset, survival, rotarod (Example 5); design: species or system mouse
Method: Mice treated with a control (n=16), ADNF (n=15), AGA-C8R-HNG17 (n=14), or colivelin (n=13) were compared by the Kaplan-Meier life test. In addition, the average day of death was compared (FIG. 8c), wherein statistical analysis was conducted by one-way ANOVA, followed by Fischer's PLSD test (**p<0.01). The motor function was evaluated by a rotarod test (FIG. 8d). Mice icy-administered with a control (n=13), ADNF (n=14), AGA-C8R-HNG17 (n=14), or colivelin (n=12) were placed onto a rotating rod at a speed of 5 rpm and observed over max 420 seconds, wherein statistical analysis was conducted by repeatedly measured ANOVA and Fischer's PLSD test.
Cannulas were fixed under aseptic conditions to the left lateral ventricles of G93A-SOD1 Tg mice (ALS model mice, 70-day-old). Colivelin ([…] in 3 μl of saline per two days) was icy-injected through the cannulas to compare its protective effect with those of the same amount of ADNF and AGA-C8R-HNG17 (FIG. 8).
The 1-onset (FIG. 8a) and survival (FIG. 8b) of mice treated with a control (n=16), ADNF (n=15), AGA-C8R-HNG17 (n=14), or colivelin (n=13) were compared by the Kaplan-Meier life test. As a result, the colivelin-treated group completely delayed ALS onset up to approximately 114 days, as compared with the ADNF-treated group (approximately 106 days) and the AGA-C8R-HNG17-treated group (approximately 108 days). Regarding survival as well, the colivelin-treated group prolonged the life span of 100% of the mice up to approximately 145 days, as compared with the ADNF-treated group (approximately 133 days) and the AGA-CBR-HNG17-treated group (approximately 138 days). Average age at death was longest in the colivelin-treated mice and was approximately 153 days (FIG. 8c).
Additionally, the motor function was evaluated by the rotarod test (FIG. 8d). Mice treated with a control (n=13), ADNF (n=14), AGA-C8R-HNG17 (n=14), or colivelin (n=12) were placed onto a rotating rod at a speed of 5 rpm and observed over max 420 seconds, wherein statistical analysis was conducted by ANOVA and Fischer's PLSD test.

[2] = system: primary cultured cortical neurons treated with Aβ (1-43); assay: Neuronal cell death induced by Aβ (1-43) peptide, WST-8 and calcein cell viability assays; format: cell-based, mouse
Method: (ii) Test of Neuronal Cell Death Induced by Aβ (1-43) Peptide
Mouse cortical neurons were primarily cultured on a poly-D-lysine-coated 96-well plate (Sumitomo Bakelite, Akita, Japan) in the absence of serum and the presence of N2 […] according to the previous report (Sudo et al., 2000, Mol. Cell. Neurosci., 16: 708-723). The purity of the neurons by this method was 98% or more. The prepared neurons (5.0×10^4 cells/well, 100 μl of medium/well) were cultured for 72 hours in the presence or absence of varying concentrations (100 aM, 1 fM, 10 fM, 100 fM, 1 pM, 10 pM, 100 pM, 1 nM, 10 nM, or 100 nM) of colivelin or AGA-C8R-HNG17 peptide. Since primary cultured neurons temporarily become fragile during medium replacement, the neurons were treated with 25 μM Aβ as follows: at first, a half volume (50 μl) of the old medium was discarded. Next, 50 μM Aβ and 50 μl of prewarmed fresh medium containing varying concentrations of colivelin or AGA-CBR-HNG17 peptides were added to the culture. Aβ (1-43) was purchased from Peptide Institute. The Aβ peptides used at the concentration of 25 μM for inducing neuronal cell death formed aggregation in the medium during 72-hour cell culture at 37° C. (Hashimoto Y, et al., 2001, J Neurosci 21: 9235-9245).
WST-8 cell viability assay was conducted with Cell Counting Kit-8 according to the previous report (Hashimoto Y, et al, 2001, Proc Natl Acad Sci USA 98: 6336-6341).
Calcein assay was conducted with calcein-AM (Dojindo, Kumamoto, Japan) according to the previous report (Hashimoto Y, et al., 2001, J Neurosci 21: 9235-9245).
These assays were simultaneously performed. After 72 hours of the Aβ treatment, the cells were added to a mixture of 10 μl of WST-8 solution and 1 μl of 600 μM calcein-AM and cultured at 37° C. for 2 hours in a CO2 incubator to measure a WST-8 absorption at O.D. 450. To decrease background, the medium was replaced by phosphate-buffered saline, followed by the measurement of calcein-specific fluorescence (excitation: 485 nm, emission: 535 nm) by fluorescence microcopy or with a spectrofluorometer (Wallac 1420 ARVOsx Multi Label Counter; Perkin Elmer, Wellesley, Mass., USA).

[3] = system: F11 cells transformed with M146L-PS1; assay: M146L-PS1-induced neuronal cell death in the presence of ADNF, Trypan blue exclusion assay; format: cell-based, rat/mouse hybrid; settings: for concentration completely suppressing M146L-PS1-induced cell death in the presence of ADNF: in the presence of 100 nM ADNF, 72 hours
Method: The protective effect of colivelin and ADNF used together against neuronal cell death induced by M146L-PS1 was examined. F11 cells were transformed with M146L-PS1 in the presence or absence of […] and treated with varying concentrations (100 aM, 1 fM, 10 fM, 100 fM, 1 pM, 10 pM, 100 pM, 1 nM, 10 nM, or 100 nM) of colivelin or AGA-C8R-HNG17.
After 72 hours of the transformation, cell mortality was measured by Trypan blue exclusion assay (FIG. 4). Approximately 50% of the neuronal cells died after the transformation with mutant PS1 gene, whereas only 10% of the untreated or empty vector-transformed cells died. […] When the M146L-PS1-transformed neuronal cells in the presence of 100 nM ADNF were treated with 10 pM colivelin, the neuronal cells died at a rate equal to that of the untreated (No) or empty vector (vec)-transformed cells.

[4] = 10 μmol in 3 μl of saline per two days, icv
[5] = Aβ (1-43)-induced neuronal cell death

Sequence | ALS onset completely delayed up to (Kaplan-Meier) [1, 4] | life span of 100% of the mice prolonged up to (Kaplan-Meier survival) [1, 4] | concentration achieving complete protection ([2]; 25 μM Aβ (1-43), 72 hours) [fM] | EC50 ([2]; 25 μM Aβ (1-43), 72 hours, WST-8, read-out: concentration at which half of the neurons were rescued) [pM] | concentration completely suppressing M146L-PS1-induced cell death in the presence of ADNF [3] [pM] | concentration at or over which protective activity attenuated ([2]; Aβ (1-43) toxicity) [nM] | effect of ADNF itself on cell death ([3]; 100 nM ADNF alone) | average age at death [1, 4] | motor function by rotarod test ([1]; 5 rpm, max 420 seconds, icv treatment) | potency relative to AGA-C8R-HNG17 [2, 5] [fold] | potency relative to HNG [2, 5] | protective activity at high concentration ([2]; at 100 nM) | activity level with 100 nM ADNF relative to that without ADNF ([3]; M146L-PS1, 10 pM with ADNF versus without)
PAGASRLLLLTGEIDLP [AGA-C8R-HNG17, Pro-Ala-Gly-Ala-Ser-Arg-Leu-Leu-Leu-Leu-Thr-Gly-Glu-Ile-Asp-Leu-Pro, reference compound] | approximately 108 days | approximately 138 days | 10000 | 1 | 10 | – | – | – | – | – | – | – | –
SALLRSIPA [ADNF, reference compound] | approximately 106 days | approximately 133 days | 100 | – | – | ≥ 1 | Neither general cell death nor M146L-PS1-induced neuronal cell death was affected | – | – | – | – | – | –
SALLRSIPAPAGASRLLLLTGEIDLP [colivelin] | approximately 114 days | approximately 145 days | 100 | – | 10 | – | – | approximately 153 days | ameliorated most; also recorded: significantly better | 100 | 100,000 fold | did not disappear | 1/100

— patent US8076449B2, “Therapeutic agents of colivelin for neurodegenerative diseases” (Tomohiro Chiba, priority 2004, dated 2011)
